Results published in ChEMBL document CHEMBL4765299 (Eur J Med Chem, 2020).
pIC50: −log10 of the molar value. Calls of active or inactive are those of the source. The rule behind the calls is not given here.

Assays:
[1] = against A against n against t against i against p against r against o against l against i against f against e against r against a against t against i against v against e against a against c against t against i against v against i against t against y against a against g against a against i against n against s against t against h against u against m against a against n against K against 5 against 6 against 2 against c against e against l against l against s against a against s against s against e against s against s against e against d against a against s against r against e against d against u against c against t against i against o against n against i against n against c against e against l against l against v against i against a against b against i against l against i against t against y against m against e against a against s against u against r against e against d against a against f against t against e against r against 7 against 2 against h against r against s against b against y against M against T against T against a against s against s against a against y against; assay type: functional, tissue-based, Homo sapiens; details: k562
[2] = tested on: H22; assay: Anti-tumor activity against mouse H22 cells allografted in ICR mice assessed as reduction in tumor weight at 6 mg/kg, iv administered every 2 days for 21 days; assay type: functional; details: 504 h, time 21 day
[3] = organism: Sus scrofa; assay: Induction of porcine brain tubulin polymerization assessed as induction of microtubule assembly by measuring increase in absorbance at 10 uM measured for 60 mins by fluorescence based analysis; assay type: tissue-based
[4] = tested on: H22; assay: Antiproliferative activity against mouse H22 cells assessed as inhibition of cell growth by MTT assay; assay type: functional, cell-based
[5] = against C against y against t against o against t against o against x against i against c against i against t against y against a against g against a against i against n against s against t against h against u against m against a against n against H against F against L against - against 1 against c against e against l against l against s against a against s against s against e against s against s against e against d against a against s against r against e against d against u against c against t against i against o against n against i against n against c against e against l against l against v against i against a against b against i against l against i against t against y against m against e against a against s against u against r against e against d against a against f against t against e against r against 7 against 2 against h against r against s against b against y against M against T against T against a against s against s against a against y against; assay type: ADME, tissue-based; details: Homo sapiens, HFL1
[6] = tested on: HepG2; assay: Antiproliferative against human HepG2 cells assessed as reduction in cell viability measured after 72 hrs by MTT assay; assay type: functional, cell-based; details: HepG2, 72 h
[7] = against A against n against t against i against p against r against o against l against i against f against e against r against a against t against i against v against e against a against c against t against i against v against i against t against y against a against g against a against i against n against s against t against h against u against m against a against n against H against C against T against - against 8 against c against e against l against l against s against a against s against s against e against s against s against e against d against a against s against r against e against d against u against c against t against i against o against n against i against n against c against e against l against l against v against i against a against b against i against l against i against t against y against m against e against a against s against u against r against e against d against a against f against t against e against r against 7 against 2 against h against r against s against b against y against M against T against T against a against s against s against a against y against; assay type: functional, tissue-based, Homo sapiens; details: hct-8
[8] = against A against n against t against i against p against r against o against l against i against f against e against r against a against t against i against v against e against a against c against t against i against v against i against t against y against a against g against a against i against n against s against t against h against u against m against a against n against M against D against A against - against M against B against - against 2 against 3 against 1 against c against e against l against l against s against a against s against s against e against s against s against e against d against a against s against r against e against d against u against c against t against i against o against n against i against n against c against e against l against l against v against i against a against b against i against l against i against t against y against m against e against a against s against u against r against e against d against a against f against t against e against r against 7 against 2 against h against r against s against b against y against M against T against T against a against s against s against a against y against; assay type: functional, tissue-based, Homo sapiens; details: mda-mb-231
[9] = tested on: K562; assay: Induction of cell cycle arrest in human K562 cells assessed as accumulation at G1 phase at 12 nM incubated for 48 hrs by propidium iodide/RNase staining based flow cytometry (reference value: 38.75%); assay type: functional
[10] = tested on: H22; assay: Anti-tumor activity against mouse H22 cells allografted in ICR mice assessed as reduction in tumor weight at 15 mg/kg, iv administered daily for 21 days; assay type: functional; details: 504 h, time 21 day
[11] = tested on: K562; assay: Induction of cell cycle arrest in human K562 cells assessed as accumulation at S phase at 12 nM incubated for 48 hrs by propidium iodide/RNase staining based flow cytometry (reference value: 53.42%); assay type: functional
[12] = tested on: K562; assay: Induction of cell cycle arrest in human K562 cells assessed as accumulation at S phase at 6 nM incubated for 48 hrs by propidium iodide/RNase staining based flow cytometry (reference value: 53.42%); assay type: functional
[13] = organism: Sus scrofa; assay: Displacement of [3H]colchicine from porcine brain tubulin at 1 uM incubated for 2 hrs by TopCount scintillation counting method relative to control; assay type: tissue-based
[14] = tested on: K562; assay: Induction of cell cycle arrest in human K562 cells assessed as accumulation at G2/M phase at 3 nM incubated for 48 hrs by propidium iodide/RNase staining based flow cytometry (reference value: 7.83%); assay type: functional
[15] = tested on: H22; assay: Anti-tumor activity against mouse H22 cells allografted in ICR mice assessed as reduction in tumor weight at 30 mg/kg, iv administered daily for 21 days; assay type: functional; details: 504 h, time 21 day
[16] = tested on: K562; assay: Induction of cell cycle arrest in human K562 cells assessed as accumulation at G2/M phase at 12 nM incubated for 48 hrs by propidium iodide/RNase staining based flow cytometry (reference value: 7.83%); assay type: functional
[17] = tested on: K562; assay: Induction of cell cycle arrest in human K562 cells assessed as accumulation at G1 phase at 6 nM incubated for 48 hrs by propidium iodide/RNase staining based flow cytometry (reference value: 38.75%); assay type: functional
[18] = tested on: K562; assay: Induction of cell cycle arrest in human K562 cells assessed as accumulation at G2/M phase at 6 nM incubated for 48 hrs by propidium iodide/RNase staining based flow cytometry (reference value: 7.83%); assay type: functional
[19] = tested on: K562; assay: Induction of cell cycle arrest in human K562 cells assessed as accumulation at G1 phase at 3 nM incubated for 48 hrs by propidium iodide/RNase staining based flow cytometry (reference value: 38.75%); assay type: functional
[20] = tested on: K562; assay: Induction of cell cycle arrest in human K562 cells assessed as accumulation at S phase at 3 nM incubated for 48 hrs by propidium iodide/RNase staining based flow cytometry (reference value: 53.42%); assay type: functional
[21] = Inhibition of porcine brain tubulin polymerization assessed as inhibition of microtubule assembly by measuring decrease in absorbance measured for 60 mins by fluorescence based analysis; assay type: tissue-based, Sus scrofa
[22] = organism: Sus scrofa; assay: Displacement of [3H]colchicine from porcine brain tubulin at 5 uM incubated for 2 hrs by TopCount scintillation counting method relative to control; assay type: tissue-based

Structure (SMILES) | pIC50 [1] | pIC50 [5] | pIC50 [6] | pIC50 [7] | pIC50 [8] | other results
C=C(c1cc(OC)nc(OC)c1)c1cn(C)c2ccccc12 | < 6.00 |  |  |  |  | 
CC(=O)O[C@H]1C(=O)[C@@]2(C)[C@H]([C@H](OC(=O)c3ccccc3)[C@]3(O)C[C@H](OC(=O)[C@H](O)[C@@H](NC(=O)c4ccccc4)c4ccccc4)C(C)=C1C3(C)C)[C@]1(OC(C)=O)CO[C@@H]1C[C@@H]2O [PACLITAXEL] |  |  |  |  |  | inhibition in vivo at 6 mg/kg [2]: 64.3%; Activity [3]: Active; pIC50 [4]: 7.08
C=C(c1ccncc1)c1ccc(OC)c(O)c1 | 6.82 | 6.16 | 6.58 | 6.65 | 6.68 | 
C=C(c1cc(C)nc(C)c1)c1ccc(OC)c(O)c1 | 7.92 | 7.07 | 7.57 | 7.51 | 7.54 | 
C=C(c1cc(OC)nc(OC)c1)c1cc(OC)c(OC)c(OC)c1 | < 6.00 |  |  |  |  | 
C=C(c1cc(N2CCOCC2)nc(N2CCOCC2)c1)c1ccc(OC)c(O)c1 | < 6.00 |  |  |  |  | 
C=C(c1cc(N2CCCC2)nc(N2CCCC2)c1)c1ccc(OC)c(O)c1 | < 6.00 |  |  |  |  | 
C=C(c1cc(C)nc(C)c1)c1ccc2c(ccn2C)c1 | 7.68 | 6.75 | 7.52 | 7.51 | 7.47 | 
C=C(c1cc(OC)nc(OC)c1)c1c[nH]c2cc(OC)ccc12 | < 6.00 |  |  |  |  | 
C=C(c1ccc(OC)c(O)c1)c1cc(OC)c(OC)c(OC)c1 | 8.22 | 7.07 | 8.00 | 8.00 | 7.92 | Activity [9]: 36.01%; inhibition in vivo at 15 mg/kg/day [10]: 56.6%; Activity [11]: 45.55%; Activity [12]: 48.36%; inhibition [13]: 74%; Activity [14]: 11.45%; inhibition in vivo at 30 mg/kg/day [15]: 66.9%; Activity [16]: 18.44%; Activity [17]: 38.07%; Activity [18]: 13.57%; Activity [19]: 37.19%; Activity [20]: 51.37%; pIC50 [21]: 5.63; pIC50 [4]: 8.10; inhibition [22]: 84.6%
C=C(c1ccnc(C)c1)c1ccc(OC)c(O)c1 | 7.62 | 6.72 | 7.51 | 7.49 | 7.51 | 
C=C(c1cc(Cl)nc(N(C)C)c1)c1ccc(OC)c(O)c1 | 7.80 | 6.94 | 7.57 | 7.54 | 7.54 | 
C=C(c1cc(OC)nc(OC)c1)c1cccc2c1ccn2C | < 6.00 |  |  |  |  | 
C=C(c1cc(OC)nc(OC)c1)c1ccc2[nH]ccc2c1 | < 6.00 |  |  |  |  | 
C=C(c1cc(OC)nc(OC)c1)c1ccc2c(c1)OCO2 | < 6.00 |  |  |  |  | 
C=C(c1cc(OC)nc(OC)c1)c1ccc(OC)c(O)c1 | 7.36 | 6.10 | 7.11 | 7.07 | 7.08 | 
C=C(c1cc(OC)nc(OC)c1)c1cn(C)c2cc(OC)ccc12 | < 6.00 |  |  |  |  | 
C=C(c1cc(OC)nc(OC)c1)c1cccc2[nH]ccc12 | < 6.00 |  |  |  |  | 
C=C(c1cc(Cl)nc(N2CCNCC2)c1)c1ccc(OC)c(O)c1 | < 6.00 |  |  |  |  | 
C=C(c1cc(OC)nc(OC)c1)c1ccc(OC)c(OC)c1 | < 6.00 |  |  |  |  | 
C=C(c1cc(OC)nc(OC)c1)c1ccc2c(ccn2C)c1 | 6.74 | 6.06 | 6.52 | 6.54 | 6.51 | 
C=C(c1cc(OC)nc(OC)c1)c1c[nH]c2ccccc12 | < 6.00 |  |  |  |  | 
